The text below walks through data of patent US11786514B2, “Sustained release aminopyridine composition” (priority 2003, dated 2023).

Data set [1] is described as follows: Multiple oral dose pharmacokinetics in patients with SCI (Example 3). The note with it: both sexes, human, in vivo. The protocol:
This example details the plasma concentration of different dosage tablets of a aminopyridine in compositions of the present invention administered to patients with spinal cord injury. Pharmacokinetic results are presented for the subset of 11 patients who completed all dose levels. […] The time of the peak and the plasma elimination half-lives were independent of dose. […] The […] of fampridine ranged from 5.7 to 6.9 hours. There were no apparent differences between males and females.

Data set [2] is described as follows: Single dose, dose proportionality pharmacokinetics and safety in patients with multiple sclerosis (Example 4). Format: in vivo, human. As to the method: This example details the pharmacokinetic properties of Fampridine-SR in tablets of the present invention administered to patients with multiple sclerosis. Plasma samples were analyzed for fampridine using a validated LC/MS/MS assay with a sensitivity of 2 ng/mL. Noncompartmental pharmacokinetic parameter values were calculated using standard methodology.
This was an open-label, multi-center, dose proportionality study of orally administered fampridine in patients with multiple sclerosis. Single doses of fampridine were to be given in escalating doses (5 mg, 10 mg, 15 mg, and 20 mg) with at least a four-day interval between administration of each dose of drug. Safety evaluations were to be performed during the 24 hour period following administration of fampridine and blood samples were to be taken at the following times to determine pharmacokinetic parameters: hour 0 (pre-dose), hours 1-8, and hours 10, 12, 14, 18, and 24.
Twenty-three subjects received all 4 treatments, and one subject received only 3 treatments; data from all treatments were analyzed. Dose-dependent parameters (e.g., peak plasma concentration and areas-under-the curve) were normalized to a 10 mg dose for among-dose comparisons.

Data set [3] can be described thus: Single escalating dose pharmacokinetics and tolerability in patients with chronic incomplete SCI (Example 6). As to the method: Each patient was to receive each dose in an ascending fashion. Each dose was to be followed by a 7-day washout period. […] Patients were to continue their fast for 4 hours after dosing and then a standard meal was to be served. Blood samples for pharmacokinetic analysis were to be obtained at Hour 0 (immediately preceding study drug administration) and 1, 2, 3, 4, 5, 6, 8, 10, 12, 16, 20, and 24 hours after each dose. A baseline urine sample was to be collected prior to dosing and urine was to be collected for 24 hours after administration of the study drug at the following intervals: 0.1 to 4 hours; 4.1 to 8 hours; 8.1 to 12 hours; and 12.1 to 24 hours.

Data set [4] can be described thus: Steady state pharmacokinetics and safety in patients with MS (Example 5). Format: in vivo, human. As to the method: This example describes the results of an open-label study to assess the steady state pharmacokinetics of orally administered fampridine (4-aminopyridine) compositions of the present invention in subjects with Multiple Sclerosis. […] Blood samples for pharmacokinetic analysis were collected on Days 1, 7/8, and 14/15 at the following intervals: immediately prior to drug administration (baseline), hourly for the first 8 hours, and 10, 12, and 24 hours post-dose. Additional blood samples were collected 14, 18, and 20 hours post-dose on Day 14, and 30 and 36 hours post-dose on Day 15.

The mark [5] stands for this setting: all doses 5-20 mg, mean and 95% confidence interval, patients with MS.
Setting [6] is: single doses 10-25 mg, patients with chronic incomplete SCI.
[7] abbreviates: 20 mg twice daily for two weeks, patients with MS.

In general, Tmax refers to the time at which the peak concentration occurs. One may read the half-life as the time needed for the level to fall by half in the phase considered. Lower therefore signals fast loss. The term Cmax denotes the maximum level reached in the sampled fluid or tissue. In general, clearance refers to the rate of elimination divided by the concentration. Read a low clearance as a low capacity for elimination. Turning to `Nc1ccncc1` [fampridine, 4-aminopyridine], in data set [1], the Tmax is 2.2 to 3 h and the half-life fell in the range of 5.7 to 6.9 h. The molecule further yielded a Cmax in data set [1] (po, 60 mg) of 152 ng/mL. Moreover, in data set [2] (setting [5]), the terminal half-life is listed as 5.47 (5.05, 5.89) h and the terminal rate constant was 0.14 (0.13, 0.15) h^−1. Besides, in data set [2] (human, in vivo), the “area-under-the-concentration-time curve (normalized to a 10 mg dose)” value is 254 (238, 270) ng-h/ml; the clearance was 637 mL/min; the “differences between pharmacokinetic parameters (AUC, Cmax, t1/2) normalized to the 10.0 mg dose” value is recorded as “no significant differences”; the “extrapolated area-under-the-concentration-time curve (normalized to a 10 mg dose)” value was 284 (266, 302) ng-h/ml. The “observed peak plasma fampridine concentration (normalized to a 10 mg dose)” value in data set [2] (human, in vivo) was 24.12 (23.8, 26.6) ng/ml. Also, in data set [2] (single doses 5-20 mg, patients with MS), the tolerability entry is listed as “well tolerated”. In data set [3] (25 mg single dose, fasted, patients with chronic incomplete SCI), this molecule came in with a Cmax of 67.4 ng/mL. Further, in data set [3] (human, in vivo), the “time of peak concentration (mean tmax) post-dose, over dose levels” value lay in the range of 3 to 4 h. In addition, the concentration in data set [3] (human, in vivo, 10 mg) peaked (Cmax) at 27.7 ng/mL. Moreover, in data set [3] (setting [6]), the “AUC0-24h as percentage of AUC0-∞” value is listed as “at least 92%” and the “mean plasma half-life (t1/2), independent of dose” value is reported as “approximately 6 hours”. Besides, in data set [4] (setting [7]), the “changes in corrected QT intervals or QRS amplitudes” value is listed as “no apparent clinically significant changes”; the “changes in mean clinical laboratory values, vital signs, or physical examination findings from baseline to last visit” value was “no clinically significant changes”; the “most common treatment-related adverse event” value is reported as “Dizziness”; the “other treatment-related adverse events” value is “nausea, ataxia, insomnia, and tremor”. Also, in data set [4] (20 mg/dose twice daily for two weeks, subjects with multiple sclerosis), the tolerability result is “well tolerated”.
